Assay results reported in US11045455B2, “Azetidine derivative, preparation method therefor, and use thereof” (SICHUAN KELUN-BIOTECH BIOPHARMACEUTICAL CO., LTD., priority 2016, dated 2021).
Like-named read-outs stand apart in the source and are kept apart here. One block for each compound: values may come before it.

Columns and labels:
[1] = Pharmacokinetic study in rats, intravenous (IV) administration; format: in vivo; conditions: male, SD, rat, plasma, IV administration at 1 mg/kg; for AUC(0-t): 0-24 h; for half-life: read-out: T½ (converted)
Procedure: (§1) Experimental Example 3: Pharmacokinetic Studies
(§2) To study the pharmacokinetic characteristics of test compounds, the test compounds were administrated by intravenous (IV) and gavage (PO) routes to male SD rats. The dosage for IV administration was 1 mg/kg, and that for PO administration was 0.5-5 mg/kg. The vehicle is 10% DMSO: 10% solutol: 80% physiological saline, or 5% DMSO: 5% solutol: 90% physiological saline, or 10% DMSO: 60% PEG: 30% physiological saline. Blood was collected at various time points after administration. Plasma samples were analyzed by LC-MS/MS after protein precipitation process with acetonitrile.

[2] = Pharmacokinetic study in rats, gavage (PO) administration; format: in vivo; conditions: male, SD, rat, plasma; for AUC(0-t): po, gavage administration at 5 mg/kg, 0-24 h
Procedure: as §1, §2

[3] = Pharmacokinetic study in Rhesus monkeys, intravenous (IV) administration; format: in vivo; conditions: male, rhesus monkey, plasma, IV administration at 0.5 mg/kg
Procedure: (§3) To study the pharmacokinetic characteristics of test compounds, the test compounds were administrated by an intravenous (IV) route to male Rhesus monkeys. The dosage for IV administration was 0.5 mg/kg. Blood was collected at various time points after the IV administration. Plasma samples were analyzed by LC-MS/MS after protein precipitation process with acetonitrile. Pharmacokinetic parameters were calculated with a non-compartmental model by using WinNonlin 6.3 software.

[4] = Pharmacokinetic study in Rhesus monkeys, gavage (PO) administration; format: in vivo; conditions: male, rhesus monkey, plasma, PO administration at 1 mg/kg; for AUC(0-t): 0-24 h; for half-life: read-out: T½ (converted)
Procedure: as §3, with “a gavage (PO)” for “an intravenous (IV)”, “PO” for “IV”, “1” for “0.5”

[5] = system: Collagen-Induced Arthritis (CIA) Model in Rats; assay: In vivo efficacy in collagen-induced arthritis (CIA) model in rats; set-up: species or system Lewis rats; Mean arthritis score: scale not given here
Procedure: Experimental Example 4: In Vivo Efficacy in Collagen-Induced Arthritis (CIA) Model in Rats
A mixed emulsion of bovine type II collagen and incomplete Freund's adjuvant 1:1 was injected at the back and the tail tip (3 sites) in Lewis rats. After 14 days, the paw thickness and paw volume of the rats were measured, and the arthritis development was scored. The day before the administration was set as DO, the animals were grouped based on paw volume, and the test compounds (vehicle: 5% DMSO+5% solutol) were gavage administered once a day for two weeks. The paw thickness and paw volume of the rats were measured, and the arthritis development was scored.

[6] = target: JAK2 (Homo sapiens (Human), UniProt O60674); assay: JAK2 enzymatic inhibition assay (ADP-Glo luminescence); format: biochemical
Procedure: (§6) Test Materials • JAK1, JAK2, JAK3 and TYK2 enzymes were purchased from Life Technologies; and substrate GFP-STAT1 was purchased from Life Technologies.
(§7) Test compounds, enzymes, the substrate and ATP were diluted to the desired concentrations with the assay buffer (40 mM Tris-HCl, pH 7.4, 20 mM MgCl2, 0.1% BSA). The former three were added into a multiple well plate, and incubated at room temperature after being mixed homogeneously. ATP was added to initiate the kinase reaction, and incubation at room temperature was performed. ADP-Glo was added, and incubation at room temperature was performed. The kinase detector reagent was then added, and incubation at room temperature was performed. The luminescence intensity of each test group was detected, and the half maximal inhibitory concentration (IC50) value was calculated.

[7] = target: JAK3 (Homo sapiens (Human), UniProt P52333); assay: JAK3 enzymatic inhibition assay (ADP-Glo luminescence); format: biochemical
Description: (§4) Experimental Example 1: JAK1, JAK2, JAK3 and TYK2 Enzymatic Inhibition Assay

[8] = target: TYK2 (Homo sapiens (Human), UniProt P29597); assay: TYK2 enzymatic inhibition assay (LanthaScreen TR-FRET); format: biochemical
TYK2, sequence (P29597 whole entry): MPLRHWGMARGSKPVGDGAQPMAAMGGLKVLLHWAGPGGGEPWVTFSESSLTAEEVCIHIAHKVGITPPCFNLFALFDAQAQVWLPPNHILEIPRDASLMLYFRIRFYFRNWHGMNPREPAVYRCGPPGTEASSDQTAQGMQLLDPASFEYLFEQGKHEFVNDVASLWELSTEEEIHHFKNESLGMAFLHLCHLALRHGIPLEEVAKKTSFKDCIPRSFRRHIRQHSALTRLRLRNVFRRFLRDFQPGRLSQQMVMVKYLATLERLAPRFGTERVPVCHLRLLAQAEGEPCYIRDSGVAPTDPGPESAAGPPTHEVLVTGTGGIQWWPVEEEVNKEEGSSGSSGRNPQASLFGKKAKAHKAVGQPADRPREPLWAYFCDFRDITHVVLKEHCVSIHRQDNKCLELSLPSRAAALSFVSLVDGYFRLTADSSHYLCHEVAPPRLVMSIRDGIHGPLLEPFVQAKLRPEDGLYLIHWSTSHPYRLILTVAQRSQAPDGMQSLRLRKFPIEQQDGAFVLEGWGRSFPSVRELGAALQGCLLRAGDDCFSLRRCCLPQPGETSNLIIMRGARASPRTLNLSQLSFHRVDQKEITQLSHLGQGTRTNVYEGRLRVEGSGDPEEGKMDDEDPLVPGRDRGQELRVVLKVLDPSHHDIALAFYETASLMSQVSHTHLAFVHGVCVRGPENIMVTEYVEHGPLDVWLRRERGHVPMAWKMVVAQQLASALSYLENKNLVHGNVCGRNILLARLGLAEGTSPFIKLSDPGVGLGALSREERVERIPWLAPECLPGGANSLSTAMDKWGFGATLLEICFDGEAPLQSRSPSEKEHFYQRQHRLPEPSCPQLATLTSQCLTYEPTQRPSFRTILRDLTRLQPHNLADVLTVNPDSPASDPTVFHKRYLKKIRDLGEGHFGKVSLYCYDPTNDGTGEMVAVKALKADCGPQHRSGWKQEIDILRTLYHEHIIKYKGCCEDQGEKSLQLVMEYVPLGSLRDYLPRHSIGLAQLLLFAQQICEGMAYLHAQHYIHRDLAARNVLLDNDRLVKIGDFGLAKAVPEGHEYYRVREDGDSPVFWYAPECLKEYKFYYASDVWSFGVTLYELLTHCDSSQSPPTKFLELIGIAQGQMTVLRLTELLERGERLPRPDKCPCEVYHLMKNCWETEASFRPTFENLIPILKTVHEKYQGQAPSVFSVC
Procedure: as §4
As for the TYK2 enzyme, Tb-anti-pSTAT1 was added, and incubation at room temperature was performed.

[9] = target: hERG potassium channel (Homo sapiens (Human), UniProt Q12809); assay: Predictor hERG Fluorescence Polarization Assay; format: binding; conditions: tested at 3, 10 and 30 μM
hERG potassium channel, sequence (Q12809 whole entry): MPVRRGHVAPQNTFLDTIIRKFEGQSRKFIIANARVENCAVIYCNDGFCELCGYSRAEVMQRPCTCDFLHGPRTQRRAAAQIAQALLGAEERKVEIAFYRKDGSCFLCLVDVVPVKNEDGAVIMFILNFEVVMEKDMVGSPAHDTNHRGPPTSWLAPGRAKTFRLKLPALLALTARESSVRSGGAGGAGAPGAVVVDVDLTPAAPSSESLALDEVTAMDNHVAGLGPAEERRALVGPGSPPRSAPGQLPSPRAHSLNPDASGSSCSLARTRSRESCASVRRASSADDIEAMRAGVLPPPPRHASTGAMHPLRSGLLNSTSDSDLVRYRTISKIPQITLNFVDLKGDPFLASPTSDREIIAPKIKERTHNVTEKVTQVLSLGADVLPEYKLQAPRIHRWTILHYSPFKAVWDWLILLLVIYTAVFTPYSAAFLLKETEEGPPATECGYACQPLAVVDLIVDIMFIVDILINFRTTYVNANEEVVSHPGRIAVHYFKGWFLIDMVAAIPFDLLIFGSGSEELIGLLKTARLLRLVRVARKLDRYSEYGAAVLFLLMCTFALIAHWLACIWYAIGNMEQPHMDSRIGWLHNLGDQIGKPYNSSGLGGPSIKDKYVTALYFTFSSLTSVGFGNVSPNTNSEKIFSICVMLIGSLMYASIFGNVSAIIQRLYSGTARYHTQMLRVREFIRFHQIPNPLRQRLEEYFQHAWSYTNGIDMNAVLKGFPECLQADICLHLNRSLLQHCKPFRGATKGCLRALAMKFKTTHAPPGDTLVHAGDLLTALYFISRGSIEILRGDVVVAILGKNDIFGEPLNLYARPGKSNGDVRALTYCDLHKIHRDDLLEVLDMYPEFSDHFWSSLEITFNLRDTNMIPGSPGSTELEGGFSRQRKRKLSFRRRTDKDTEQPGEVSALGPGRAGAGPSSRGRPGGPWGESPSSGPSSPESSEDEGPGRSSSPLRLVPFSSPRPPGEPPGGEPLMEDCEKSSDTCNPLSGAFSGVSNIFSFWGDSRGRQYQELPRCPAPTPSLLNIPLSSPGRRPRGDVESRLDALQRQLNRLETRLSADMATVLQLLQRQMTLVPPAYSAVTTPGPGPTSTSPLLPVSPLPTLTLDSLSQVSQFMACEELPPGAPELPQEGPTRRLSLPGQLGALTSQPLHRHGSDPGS
Procedure: Experimental Example 2: Safety Test
The effect of test compounds on hERG potassium channel were determined using Predictor™ hERG Fluorescence Polarization Assay at concentrations of 3, 10, and 30 μM.

[10] = target: CYP1A2 (Homo sapiens (Human), UniProt P05177); assay: CYP450 enzyme test, P450-Glo screening system, CYP1A2; format: in vitro ADME
CYP1A2, sequence (P05177 whole entry): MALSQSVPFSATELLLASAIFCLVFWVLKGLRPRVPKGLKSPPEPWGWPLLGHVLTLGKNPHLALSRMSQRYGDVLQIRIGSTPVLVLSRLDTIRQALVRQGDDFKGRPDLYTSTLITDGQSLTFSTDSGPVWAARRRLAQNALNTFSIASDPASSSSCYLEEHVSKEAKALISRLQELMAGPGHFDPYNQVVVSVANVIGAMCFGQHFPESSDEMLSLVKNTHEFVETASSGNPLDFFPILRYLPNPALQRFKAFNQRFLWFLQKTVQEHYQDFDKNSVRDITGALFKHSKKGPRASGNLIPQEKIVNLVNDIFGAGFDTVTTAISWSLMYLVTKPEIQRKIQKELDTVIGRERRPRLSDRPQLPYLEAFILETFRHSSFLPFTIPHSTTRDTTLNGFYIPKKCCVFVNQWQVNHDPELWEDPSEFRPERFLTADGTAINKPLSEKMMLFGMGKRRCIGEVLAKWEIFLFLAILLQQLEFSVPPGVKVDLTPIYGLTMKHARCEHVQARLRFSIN
Description: (§5) CYP450 is the most important enzymatic system in drug metabolism. The enzymes involved in the metabolism interact with a drug, and mainly include CYP1A2, CYP2D6 and CYP3A4. In the CYP450 enzyme test, P450-Glo™ CYP1A2 screening system was employed to determine the inhibitory activity of compounds on CYP1A2 and CYP3A4. The Vivid® CYP2D6 Cyan screening kit was employed to determine the inhibitory activity of test compounds on CYP2D6.

[11] = target: CYP2D6 (Homo sapiens (Human), UniProt P10635); assay: CYP450 enzyme test, Vivid CYP2D6 Cyan screening kit; format: in vitro ADME
CYP2D6, sequence (P10635 whole entry): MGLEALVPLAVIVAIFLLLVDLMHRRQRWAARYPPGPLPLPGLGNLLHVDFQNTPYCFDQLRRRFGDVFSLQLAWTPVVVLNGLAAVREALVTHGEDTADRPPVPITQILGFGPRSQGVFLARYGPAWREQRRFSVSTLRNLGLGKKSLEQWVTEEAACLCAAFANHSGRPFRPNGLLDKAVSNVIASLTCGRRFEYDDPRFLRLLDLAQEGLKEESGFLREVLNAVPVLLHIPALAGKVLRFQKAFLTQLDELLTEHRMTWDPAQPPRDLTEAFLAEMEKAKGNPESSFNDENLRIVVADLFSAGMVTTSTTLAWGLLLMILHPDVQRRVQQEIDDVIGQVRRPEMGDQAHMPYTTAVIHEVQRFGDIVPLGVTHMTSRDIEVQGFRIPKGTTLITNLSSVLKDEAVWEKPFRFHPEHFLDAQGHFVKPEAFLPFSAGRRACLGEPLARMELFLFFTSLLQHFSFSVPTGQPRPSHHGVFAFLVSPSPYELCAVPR
Description: as §5

[12] = target: CYP3A4 (Homo sapiens (Human), UniProt P08684); assay: CYP450 enzyme test, P450-Glo screening system, CYP3A4; format: in vitro ADME
CYP3A4, sequence (P08684 whole entry): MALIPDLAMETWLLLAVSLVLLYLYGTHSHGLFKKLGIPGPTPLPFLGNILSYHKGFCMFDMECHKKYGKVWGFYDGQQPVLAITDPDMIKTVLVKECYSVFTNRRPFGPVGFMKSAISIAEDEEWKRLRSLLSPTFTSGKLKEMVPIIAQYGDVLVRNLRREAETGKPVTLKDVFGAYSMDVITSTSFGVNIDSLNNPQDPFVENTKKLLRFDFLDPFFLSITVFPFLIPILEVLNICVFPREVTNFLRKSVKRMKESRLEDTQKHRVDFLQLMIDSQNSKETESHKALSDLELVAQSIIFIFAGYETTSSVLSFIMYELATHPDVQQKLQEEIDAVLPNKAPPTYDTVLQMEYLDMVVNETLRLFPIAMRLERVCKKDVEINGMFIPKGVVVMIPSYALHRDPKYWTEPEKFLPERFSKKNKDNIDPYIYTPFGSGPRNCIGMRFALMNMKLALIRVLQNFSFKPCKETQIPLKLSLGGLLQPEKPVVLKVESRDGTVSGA
Description: as §5

[13] = target: JAK1 (Homo sapiens (Human), UniProt P23458); assay: JAK1 enzymatic inhibition assay (ADP-Glo luminescence); format: biochemical
JAK1, sequence (P23458 whole entry): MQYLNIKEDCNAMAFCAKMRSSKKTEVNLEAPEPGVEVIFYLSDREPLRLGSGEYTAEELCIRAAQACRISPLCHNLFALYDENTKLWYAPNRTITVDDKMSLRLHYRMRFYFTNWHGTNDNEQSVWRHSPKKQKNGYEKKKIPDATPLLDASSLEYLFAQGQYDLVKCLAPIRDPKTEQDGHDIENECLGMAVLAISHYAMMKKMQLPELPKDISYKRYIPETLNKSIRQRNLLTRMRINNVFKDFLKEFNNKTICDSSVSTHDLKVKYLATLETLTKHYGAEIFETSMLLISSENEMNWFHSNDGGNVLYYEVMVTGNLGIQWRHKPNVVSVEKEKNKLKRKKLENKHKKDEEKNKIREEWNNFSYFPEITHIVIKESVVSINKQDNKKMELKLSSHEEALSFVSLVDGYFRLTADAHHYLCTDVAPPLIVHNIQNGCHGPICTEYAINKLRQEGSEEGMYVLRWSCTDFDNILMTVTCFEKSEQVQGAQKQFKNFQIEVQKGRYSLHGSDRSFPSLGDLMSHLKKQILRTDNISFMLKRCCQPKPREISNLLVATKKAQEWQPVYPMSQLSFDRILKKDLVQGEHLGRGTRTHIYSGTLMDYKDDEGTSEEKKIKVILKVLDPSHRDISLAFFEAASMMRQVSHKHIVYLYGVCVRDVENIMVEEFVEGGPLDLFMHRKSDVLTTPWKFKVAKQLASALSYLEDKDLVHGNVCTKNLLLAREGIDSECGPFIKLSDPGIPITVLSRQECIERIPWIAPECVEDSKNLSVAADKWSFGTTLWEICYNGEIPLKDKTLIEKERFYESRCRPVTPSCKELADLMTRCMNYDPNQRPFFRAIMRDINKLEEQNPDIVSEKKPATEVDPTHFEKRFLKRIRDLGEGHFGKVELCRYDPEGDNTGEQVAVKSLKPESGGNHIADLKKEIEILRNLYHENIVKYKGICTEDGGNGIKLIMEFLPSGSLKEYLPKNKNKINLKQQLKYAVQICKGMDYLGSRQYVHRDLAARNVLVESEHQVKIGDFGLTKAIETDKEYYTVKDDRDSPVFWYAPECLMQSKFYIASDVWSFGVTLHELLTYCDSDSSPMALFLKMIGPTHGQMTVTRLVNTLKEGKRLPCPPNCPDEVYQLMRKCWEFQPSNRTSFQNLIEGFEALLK
Procedure: as §6, §7

[14] = D0 (day before administration), 10 mg/kg group
[15] = D11, 10 mg/kg gavage once a day
[16] = D15, 10 mg/kg gavage once a day

AUC(0-t) [1]: 505 ng·h/mL
half-life [1]: 0.946 h
bioavailability ([2]; PO administration at 0.5-5 mg/kg, read-out: bioavailability (F %)): 55%
half-life ([2]; PO administration at 0.5-5 mg/kg, read-out: half-life (T1/2) (converted)): 1.58 h
AUC(0-t) [2]: 3050 ng·h/mL
half-life [3]: 1.38 h
bioavailability [4]: 26.3%
AUC(0-t) [4]: 994 ng·h/mL
half-life [4]: 1.96 h
SMILES: CCS(=O)(=O)N1CC(CC#N)(n2cc(-c3ncnc4[nH]ccc34)cn2)C1 [Baricitinib, reference compound]
Mean arthritis score [5, 14]: 3.00
Mean paw thickness (mm) [5, 14]: 7.17 mm
Mean paw volume [5, 14]: 1.71 mL
Mean arthritis score ([5]; D4, 10 mg/kg gavage once a day): 2.25
Mean paw thickness (mm) ([5]; D4, 10 mg/kg gavage once a day): 6.67 mm
Mean paw volume ([5]; D4, 10 mg/kg gavage once a day): 1.55 mL
Mean arthritis score ([5]; D7, 10 mg/kg gavage once a day): 1.38
Mean paw thickness (mm) ([5]; D7, 10 mg/kg gavage once a day): 6.47 mm
Mean paw volume ([5]; D7, 10 mg/kg gavage once a day): 1.47 mL
Mean arthritis score [5, 15]: 1.75
Mean paw thickness (mm) [5, 15]: 6.36 mm
Mean paw volume [5, 15]: 1.48 mL
Mean arthritis score [5, 16]: 1.88
Mean paw thickness (mm) [5, 16]: 6.21 mm
Mean paw volume [5, 16]: 1.59 mL

IC50 [6]: 1.49 nM
IC50 [7]: 33.8 nM
IC50 [8]: 27 nM
IC50 ([10]; human): > 10 µM
IC50 [11]: > 10 µM
IC50 [12]: > 10 µM
AUC(0-t) [1]: 834 ng·h/mL
half-life [1]: 0.997 h
AUC(0-t) [2]: 3150 ng·h/mL
SMILES: CCS(=O)(=O)N1CC(CC#N)(n2cc(-c3c(C#N)cnc4[nH]ccc34)cn2)C1 [Compound 5, 4-(1-(3-(cyanomethyl)-1-(ethylsulfonyl)azetidin-3-yl)-1H-pyrazol-4-yl)-1H-pyrrolo[2,3-b]pyridine-5-carbonitrile]
IC50 [9]: > 30000 nM

IC50 [7]: 47.9 nM
IC50 [8]: 27.3 nM
AUC(0-t) [1]: 2650 ng·h/mL
half-life [1]: 3.93 h
AUC(0-t) [2]: 14100 ng·h/mL
half-life [3]: 5.29 h
bioavailability [4]: 78.6%
AUC(0-t) [4]: 2600 ng·h/mL
half-life [4]: 2.68 h
SMILES: CCS(=O)(=O)N1CC(CC#N)(n2cc(-c3ccnc4[nH]ccc34)cn2)C1 [Compound 8, 2-(3-(4-(1H-pyrrolo[2,3-b]pyridin-4-yl)-1H-pyrazol-1-yl)-1-(ethylsulfonyl)azetidin-3-yl)acetonitrile]
IC50 [9]: > 30000 nM
Mean arthritis score [5, 14]: 2.63
Mean paw thickness (mm) [5, 14]: 7.18 mm
Mean paw volume [5, 14]: 1.71 mL
Mean arthritis score ([5]; D4, 10 mg/kg gavage once a day): 1.38
Mean paw thickness (mm) ([5]; D4, 10 mg/kg gavage once a day): 6.04 mm
Mean paw volume ([5]; D4, 10 mg/kg gavage once a day): 1.47 mL
Mean arthritis score ([5]; D7, 10 mg/kg gavage once a day): 1.00
Mean paw thickness (mm) ([5]; D7, 10 mg/kg gavage once a day): 5.67 mm
Mean paw volume ([5]; D7, 10 mg/kg gavage once a day): 1.41 mL
Mean arthritis score [5, 15]: 1.00
Mean paw thickness (mm) [5, 15]: 5.56 mm
Mean paw volume [5, 15]: 1.42 mL
Mean arthritis score [5, 16]: 1.13
Mean paw thickness (mm) [5, 16]: 5.52 mm
Mean paw volume [5, 16]: 1.48 mL

IC50 [13]: 0.69 nM
IC50 [7]: 10.3 nM
IC50 ([10]; human): > 10 µM
IC50 [11]: > 10 µM
IC50 [12]: > 10 µM
AUC(0-t) [1]: 1390 ng·h/mL
half-life [1]: 7.1 h
AUC(0-t) [2]: 5030 ng·h/mL
SMILES: CS(=O)(=O)N1CC(CC#N)(n2cc(-c3ccnc4[nH]ccc34)cn2)C1 [Compound 19, 2-(3-(4-(1H-pyrrolo[2,3-b]pyridin-4-yl)-1H-pyrazol-1-yl)-1-(methylsulfonyl)azetidin-3-yl)acetonitrile]
IC50 [9]: > 30000 nM

IC50 [13]: 2.29 nM
IC50 [6]: 0.83 nM
IC50 [7]: > 30 nM
IC50 [8]: > 30 nM
IC50 ([10]; read-out: IC50 (μM) CYP1A2): > 10 µM
IC50 [11]: > 10 µM
IC50 [12]: > 10 µM
SMILES: CC(C)CS(=O)(=O)N1CC(CC#N)(n2cc(-c3ccnc4[nH]ccc34)cn2)C1 [Compound 25, 2-(3-(4-(1H-pyrrolo[2,3-b]pyridin-4-yl)-1H-pyrazol-1-yl)-1-(isobutylsulfonyl)azetidin-3-yl)acetonitrile]
IC50 [9]: > 30000 nM

IC50 [13]: 2.22 nM
IC50 [6]: 2.16 nM
IC50 [7]: 36.5 nM
IC50 [8]: 58.2 nM
AUC(0-t) [1]: 3170 ng·h/mL
half-life [1]: 1.5 h
AUC(0-t) [2]: 32200 ng·h/mL
SMILES: N#CCC1(n2cc(-c3ccnc4[nH]ccc34)cn2)CN(S(=O)(=O)CCC(F)(F)F)C1 [Compound 30, 2-(3-(4-(1H-pyrrolo[2,3-b]pyridin-4-yl)-1H-pyrazol-1-yl)-1-((3,3,3-trifluoropropyl)sulfonyl)azetidin-3-yl)acetonitrile]
IC50 [9]: > 30000 nM

IC50 [6]: 0.69 nM
IC50 [7]: 10 to 30 nM
IC50 ([10]; human): > 10 µM
IC50 [11]: > 10 µM
IC50 [12]: > 10 µM
half-life [1]: 1.67 h
SMILES: CCS(=O)(=O)N1CC(CC#N)(n2cc(-c3ncnc4[nH]ccc34)cc2C#N)C1 [Compound 39, 1-(3-(cyanomethyl)-1-(ethylsulfonyl)azetidin-3-yl)-4-(7H-pyrrolo[2,3-d]pyrimidin-4-yl)-1H-pyrrole-2-carbonitrile]
IC50 [9]: > 30000 nM

IC50 [13]: 0.55 nM
IC50 [6]: 2.54 nM
IC50 [7]: 10 to 30 nM
IC50 [8]: > 30 nM
IC50 ([10]; read-out: IC50 (μM) CYP1A2): > 10 µM
IC50 [11]: > 10 µM
IC50 [12]: > 10 µM
SMILES: CC(C)S(=O)(=O)N1CC(CC#N)(n2cc(-c3c(C#N)cnc4[nH]ccc34)cn2)C1 [Compound 43, 4-(1-(3-(cyanomethyl)-1-(isopropylsulfonyl)azetidin-3-yl)-1H-pyrazol-4-yl)-1H-pyrrolo[2,3-b]pyridine-5-carbonitrile]
IC50 [9]: > 30000 nM
